Measured values as given in PubChem BioAssay (NCI).
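Protocol summary: plate cells (96-well), add compound at 5 concentrations, incubate 48 h, interpolate endpoints linearly. GI50 marks 50% less growth. TGI is the concentration that stops growth completely.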

What was measured:
Assay in all cases: DTP human tumour cell line panel, 48 h
SK-MEL-5 melanoma = tested on: SK-MEL-5 melanoma
MDA-MB-435 = tested on: MDA-MB-435
MALME-3M melanoma = tested on: MALME-3M melanoma
HCC-2998 colon = tested on: HCC-2998 colon
UO-31 renal = tested on: UO-31 renal
MOLT-4 leukemia = tested on: MOLT-4 leukemia
KM12 colon = tested on: KM12 colon
DU-145 prostate = tested on: DU-145 prostate
A549 NSCLC = tested on: A549 NSCLC
SK-MEL-2 melanoma = tested on: SK-MEL-2 melanoma
SW-620 colon = tested on: SW-620 colon
SF-295 CNS = tested on: SF-295 CNS
OVCAR-8 ovarian = tested on: OVCAR-8 ovarian
IGROV1 ovarian = tested on: IGROV1 ovarian
A498 renal = tested on: A498 renal
HT29 colon = tested on: HT29 colon
SNB-75 CNS = tested on: SNB-75 CNS
M14 melanoma = tested on: M14 melanoma
HOP-62 NSCLC = tested on: HOP-62 NSCLC
TK-10 renal = tested on: TK-10 renal
ACHN renal = tested on: ACHN renal
OVCAR-5 ovarian = tested on: OVCAR-5 ovarian
SK-OV-3 ovarian = tested on: SK-OV-3 ovarian
HOP-92 NSCLC = tested on: HOP-92 NSCLC
SR leukemia = tested on: SR leukemia
HCT-15 colon = tested on: HCT-15 colon
SN12C renal = tested on: SN12C renal

With `Cc1ccc2c(n1)C(=O)C(Cl)=C(Nc1cccc(C)c1C)C2=O` the TGI (SK-MEL-5 melanoma) was 3.02 µM, the GI50 (MDA-MB-435) was 1.89 µM and the TGI (MDA-MB-435) was 3.72 µM. For the same molecule, the GI50 (MALME-3M melanoma) was 1.83 µM, the TGI (MALME-3M melanoma) was 3.3 µM and the GI50 (HCC-2998 colon) was 1.92 µM. For the same molecule, the TGI (HCC-2998 colon) was 3.77 µM, the GI50 (UO-31 renal) was 1.46 µM and the TGI (UO-31 renal) was 2.95 µM. For the same molecule, the GI50 (MOLT-4 leukemia) was 0.827 µM, the TGI (MOLT-4 leukemia) was 3.35 µM and the GI50 (KM12 colon) was 1.95 µM. It also gave a TGI (KM12 colon) of 4.54 µM, a GI50 (DU-145 prostate) of 1.65 µM and a TGI (DU-145 prostate) of 3.2 µM. It also gave a GI50 (A549 NSCLC) of 2.15 µM, a TGI (A549 NSCLC) of 5 µM and a GI50 (SK-MEL-2 melanoma) of 1.91 µM. For the same molecule, the TGI (SK-MEL-2 melanoma) was 3.84 µM, the GI50 (SW-620 colon) was 2.06 µM and the TGI (SW-620 colon) was 4.82 µM. For the same molecule, the GI50 (SF-295 CNS) was 1.84 µM, the TGI (SF-295 CNS) was 3.39 µM and the GI50 (OVCAR-8 ovarian) was 2.02 µM. The TGI (OVCAR-8 ovarian) was 7.41 µM, the GI50 (IGROV1 ovarian) was 1.68 µM and the TGI (IGROV1 ovarian) was 3.72 µM. For the same molecule, the GI50 (A498 renal) was 2.23 µM, the TGI (A498 renal) was 5.19 µM and the GI50 (HT29 colon) was 2.68 µM. It also gave a TGI (HT29 colon) of 7.16 µM, a GI50 (SNB-75 CNS) of 1.46 µM and a TGI (SNB-75 CNS) of 2.92 µM. For the same molecule, the GI50 (M14 melanoma) was 1.61 µM, the TGI (M14 melanoma) was 3.19 µM and the GI50 (HOP-62 NSCLC) was 1.55 µM. It also gave a TGI (HOP-62 NSCLC) of 2.96 µM, a GI50 (TK-10 renal) of 2.47 µM and a TGI (TK-10 renal) of 4.2 µM. The GI50 (ACHN renal) was 1.62 µM, the TGI (ACHN renal) was 3.19 µM and the GI50 (OVCAR-5 ovarian) was 2.01 µM. For the same molecule, the TGI (OVCAR-5 ovarian) was 3.93 µM, the GI50 (SK-OV-3 ovarian) was 1.59 µM and the TGI (SK-OV-3 ovarian) was 3.64 µM. The GI50 (HOP-92 NSCLC) was 1.98 µM, the TGI (HOP-92 NSCLC) was 3.95 µM and the GI50 (SR leukemia) was 0.6 µM. The TGI (SR leukemia) was 3.21 µM, the GI50 (HCT-15 colon) was 1.13 µM and the TGI (HCT-15 colon) was 2.73 µM. For the same molecule, the GI50 (SN12C renal) was 1.67 µM and the TGI (SN12C renal) was 4.35 µM.
